Target: T1, Proteasome Macropain subunit MB1 (Homo sapiens) (UniProt P28074)
T1 sequence (whole entry): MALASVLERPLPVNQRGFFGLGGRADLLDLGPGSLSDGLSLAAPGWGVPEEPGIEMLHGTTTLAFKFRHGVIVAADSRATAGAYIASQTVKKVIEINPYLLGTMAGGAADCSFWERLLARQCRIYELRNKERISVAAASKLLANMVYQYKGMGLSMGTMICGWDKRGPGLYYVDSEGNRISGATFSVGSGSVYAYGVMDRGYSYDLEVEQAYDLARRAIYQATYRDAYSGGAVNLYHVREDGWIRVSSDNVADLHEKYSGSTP

Kin	SMILES
0.0005 s⁻¹	COC(=O)[C@@H](NC(=O)N[C@H](C(=O)N[C@H]1CCCCNC(=O)/C=C/[C@H](Cc2cc(F)cc(F)c2)NC1=O)C(C)C)C(C)C
0.000486 s⁻¹	COC(=O)[C@@H](NC(=O)N[C@H](C(=O)N[C@H]1CCCCNC(=O)/C=C/[C@H](Cc2cccc(F)c2)NC1=O)C(C)C)C(C)C

Target: T2, Proteasome Macropain subunit MB1 (Homo sapiens, UniProt P28074)
T2 sequence (P28074 whole entry): T1 sequence (whole entry)
Test: Inhibition of human 20S proteasome beta5 subunit using Suc-LLVY-AMC as substrate by fluorescence assay

SMILES	Ki
COC(=O)[C@@H](NC(=O)N[C@H](C(=O)N[C@H]1CCCCNC(=O)/C=C/[C@H](Cc2ccc(C)cc2)NC1=O)C(C)C)C(C)C	1140 nM
COC(=O)[C@@H](NC(=O)N[C@H](C(=O)N[C@H]1CCCCNC(=O)/C=C/[C@H](Cc2cccc(C)c2)NC1=O)C(C)C)C(C)C	2350 nM
COC(=O)[C@@H](NC(=O)N[C@H](C(=O)N[C@H]1CCCCNC(=O)/C=C/[C@H](Cc2cccc(C(F)(F)F)c2)NC1=O)C(C)C)C(C)C	7580 nM
COC(=O)[C@@H](NC(=O)N[C@H](C(=O)N[C@H]1CCCCNC(=O)/C=C/[C@H](Cc2ccccc2Cl)NC1=O)C(C)C)C(C)C	2110 nM
COC(=O)[C@@H](NC(=O)N[C@H](C(=O)N[C@H]1CCCCNC(=O)/C=C/[C@H](Cc2ccccc2)NC1=O)C(C)C)C(C)C	743 nM
COC(=O)[C@@H](NC(=O)N[C@H](C(=O)N[C@H]1CCCCNC(=O)/C=C/[C@H](CC(C)C)NC1=O)C(C)C)C(C)C	3230 nM
COC(=O)[C@@H](NC(=O)N[C@H](C(=O)N[C@H]1CCCCNC(=O)/C=C/[C@H](Cc2ccc(Cl)cc2)NC1=O)C(C)C)C(C)C	1240 nM

Further lines, results first:

Ki	SMILES
906 nM	COC(=O)[C@@H](NC(=O)N[C@H](C(=O)N[C@H]1CCCCNC(=O)/C=C/[C@H](Cc2ccccc2F)NC1=O)C(C)C)C(C)C
952 nM	COC(=O)[C@@H](NC(=O)N[C@H](C(=O)N[C@H]1CCCCNC(=O)/C=C/[C@H](Cc2cc(F)cc(F)c2)NC1=O)C(C)C)C(C)C
592 nM	COC(=O)[C@@H](NC(=O)N[C@H](C(=O)N[C@H]1CCCCNC(=O)/C=C/[C@H](Cc2cccc(F)c2)NC1=O)C(C)C)C(C)C
963 nM	COC(=O)[C@@H](NC(=O)N[C@H](C(=O)N[C@H]1CCCCNC(=O)/C=C/[C@H](Cc2cccc(Cl)c2)NC1=O)C(C)C)C(C)C
